Test [1] concerns Hedgehog pathway activation on 10T1/2/Smo#3 cells (C3H10T1/2 cells transfected with human Smoothened receptor). Kind of test: Hedgehog pathway activation on 10T1/2/Smo#3 cells measured by ALP activity. The class given is cell-based. As to conditions: Mus musculus, C3H 10T1/2, 10T1/2/Smo#3 cells. In short, it runs like this: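 C3H10T1/2 cells stably expressing human Smoothened were activated with hShh-conditioned medium (10-20%) or 500 nM SAG, with test compounds present. Pathway block read as inhibited ALP activity (4-methylumbelliferyl phosphate fluorescence); viability checked by CellTiter-Blue. IC50 values reported.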

In test [2] the test system is Hedgehog pathway activation (GLi-luciferase reporter) in Shh Light II reporter cells. Briefly: Hedgehog pathway activation on Shh Light II reporter cells measured by luciferase activity. As to conditions: Mus musculus, Shh Light II. The class given is cell-based. In short, it runs like this:
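Shh Light II reporter cells carrying a hedgehog-responsive GLi-luciferase reporter were stimulated either with 500 nM SAG, a direct Smoothened agonist, or with conditioned media containing human Sonic Hedgehog (hShh). Test compounds were evaluated for blocking this pathway activation, quantified by luciferase activity. Cell viability was monitored in parallel with the Celltiter-Blue® assay.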

Where [3] appears, read: measured by ALP activity, read-out: ALP (IC50, inhibition of Hedgehog pathway activation).
Setting [4] is: hShh activation, read-out: Shh (IC50, inhibition of Hedgehog pathway activation).
[5] abbreviates: hShh activation, ALP activity, read-out: 10T1/2/Smo#3 ALP activity (hShh Activation).
The mark [6] stands for this setting: SAG activation (500 nM SAG), read-out: Shh Light II luciferase activity (SAG activation).
The mark [7] stands for this setting: hShh activation, read-out: Shh Light II luciferase activity (hShh activation).

Results on 26 compounds are retold here after patent publication US8871767B2, “2-arylimidazo[1,2-B]pyridazine, 2-phenylimidazo[1,2-A]pyridine, and 2-phenylimidazo[1,2-A]pyrazine derivatives” (Hengrui (USA) Ltd., priority 2010, dated 2014).

Read-outs that look alike come from different tables or passages of the source. Where only a bound is given, the exact number is not on record here.

With `CC(=O)NC1CCN(c2ccc3nc(-c4ccc(C(F)(F)F)c(NC(=O)C(C)(C)C)c4)cn3n2)C1` (stereo not drawn) [Example 351, N-(5-(6-(3-acetamidopyrrolidin-1-yl)imidazo[1,2-b]pyridazin-2-yl)-2-(trifluoromethyl)phenyl)pivalamide], the IC50 in test [1] (setting [3]) is 21 nM; in test [2] (setting [4]), 38 nM.
As to `CC(C)(C)C(=O)Nc1cc(-c2cn3nc(-c4ccc(Cl)cc4)ccc3n2)ccc1C(F)(F)F` [Example 238, N-(5-(6-(4-chlorophenyl)imidazo[1,2-b]pyridazin-2-yl)-2-(trifluoromethyl)phenyl)pivalamide], the IC50 was determined as 230 nM in test [1] (setting [3]) and 625 nM in test [2] (setting [4]).
Consider `Cc1c(-c2ccccc2)nc2ccc(N3CCN(C(=O)CC(C)(C)C)CC3)nn12` [Example 157, 3,3-dimethyl-1-(4-(3-methyl-2-phenylimidazo[1,2-b]pyridazin-6-yl)piperazin-1-yl)butan-1-one], for which the figures for the IC50 in test [1] (setting [3]) and in test [2] (setting [4]) were more than 10000 nM and 1950 nM, respectively.
In the case of `Cc1ccc(-c2cn3nc(N4CCN(Cc5ccc(F)cc5)CC4)ccc3n2)cc1NC(=O)C(C)(C)C` [Example 123, N-(5-(6-(4-(4-fluorobenzyl)piperazin-1-yl)imidazo[1,2-b]pyridazin-2-yl)-2-methylphenyl)pivalamide], the IC50 in test [1] (setting [5]) is 300 to 3000 nM; in test [1] (setting [3]), 488 nM; in test [2] (setting [6]) it was 300 to 3000 nM; in test [2] (setting [4]) it was 712 nM; in test [2] (setting [7]), 300 to 3000 nM.
As for `CC(C)(C)C(=O)Nc1cc(-c2cn3nc(-c4cc(F)ccc4C(F)(F)F)ccc3n2)ccc1C(F)(F)F` [Example 291, N-(5-(6-(5-fluoro-2-(trifluoromethyl)phenyl)imidazo[1,2-b]pyridazin-2-yl)-2-(trifluoromethyl)phenyl)pivalamide], the IC50 amounted to 325 nM in test [1] (setting [3]) and 289 nM in test [2] (setting [4]).
The matching figures for `Cc1ccc(-c2cn3nc(-c4cc(C#N)ccc4Cl)ccc3n2)cc1NC(=O)C(C)(C)C` [compound 565]: 61 nM and 9 nM.
Taken in the same sequence, the figures for `O=C(CC(F)(F)F)Nc1cc(-c2cn3nc(-c4cccnc4C(F)(F)F)ccc3n2)ccc1F` [Example 680, 3,3,3-trifluoro-N-(2-fluoro-5-(6-(2-(trifluoromethyl)pyridin-3-yl)imidazo[1,2-b]pyridazin-2-yl)phenyl)propanamide] were 3610 nM and 518 nM.
Consider `O=C(Nc1cc(-c2cn3nc(-c4cccnc4C(F)(F)F)ccc3n2)ccc1F)C1CCCCC1` [Example 677, N-(2-fluoro-5-(6-(2-(trifluoromethyl)pyridin-3-yl)imidazo[1,2-b]pyridazin-2-yl)phenyl)cyclohexanecarboxamide], for which the IC50 in test [1] (setting [3]) is 637 nM; in test [2] (setting [4]) it was 146 nM.
Regarding `CC(C)(C)C(=O)Nc1cc(-c2cn3cc(-c4cc(C(F)(F)F)ccc4F)ccc3n2)ccc1C(F)(F)F` [Example 84, N-(5-(6-(2-fluoro-5-(trifluoromethyl)phenyl)imidazo[1,2-a]pyridin-2-yl)-2-(trifluoromethyl)phenyl)pivalamide], the IC50 in test [1] (setting [3]) was determined as 2490 nM; in test [2] (setting [4]), 1580 nM.
For `Cc1ccc(-c2cn3nc(-c4ccccc4Cl)ccc3n2)cc1NC(=O)C(C)(C)C` [Example 258, N-(5-(6-(2-chlorophenyl)imidazo[1,2-b]pyridazin-2-yl)-2-methylphenyl)pivalamide], the values for the IC50 in test [1] (setting [3]) and in test [2] (setting [4]) were 105 nM and 129 nM, respectively.
Consider `CCc1ccc(-c2cn3nc(-c4cccnc4C(F)(F)F)ccc3n2)cc1NC(=O)N(CC)CC` [Example 693, 1,1-diethyl-3-(2-ethyl-5-(6-(2-(trifluoromethyl)pyridin-3-yl)imidazo[1,2-b]pyridazin-2-yl)phenyl)urea], for which the IC50 in test [1] (setting [3]) is 186 nM; in test [2] (setting [4]) it was 192 nM.
With `CC(C)(C)C(=O)Nc1cc(-c2cn3nc(NCCO)ccc3n2)ccc1C(F)(F)F` [Example 304, N-(5-(6-(2-hydroxyethylamino)imidazo[1,2-b]pyridazin-2-yl)-2-(trifluoromethyl)phenyl)pivalamide], the IC50 came to 393 nM in test [1] (setting [3]) and 559 nM in test [2] (setting [4]).
As to `CSc1ccc2nc(-c3ccc(C(F)(F)F)c(NC(=O)C(C)(C)C)c3)cn2n1` [Example 135, N-(5-(6-(methylthio)imidazo[1,2-b]pyridazin-2-yl)-2-(trifluoromethyl)phenyl)pivalamide], the IC50 in test [1] (setting [3]) was 5230 nM; in test [2] (setting [4]), 1250 nM.
For the compound `CC(C)(C)C(=O)Nc1cc(-c2cn3nc(-c4ccccc4F)ccc3n2)ccc1OC(F)(F)F` [Example 248, N-(5-(6-(2-fluorophenyl)imidazo[1,2-b]pyridazin-2-yl)-2-(trifluoromethoxy)phenyl)pivalamide], the IC50 in test [1] (setting [5]) is less than 300 nM; in test [1] (setting [3]), 231 nM; in test [2] (setting [6]), 300 to 3000 nM; in test [2] (setting [7]), 300 to 3000 nM.
On to `COc1cc(CN(Cc2cc(OC)cc(OC)c2)c2cc(-c3cn4nc(OC)ccc4n3)ccc2C)cc(OC)c1` [Example 104, N,N-bis(3,5-dimethoxybenzyl)-5-(6-methoxyimidazo[1,2-b]pyridazin-2-yl)-2-methylaniline], for which the IC50 in test [1] (setting [5]) was 3000 to 30000 nM; in test [1] (setting [3]), more than 10000 nM; in test [2] (setting [6]), 3000 to 30000 nM; in test [2] (setting [4]), more than 10000 nM; in test [2] (setting [7]), 3000 to 30000 nM.
For `COc1ccc2nc(-c3ccc(Cl)c(NC(=O)C4CCCC4)c3)cn2n1` [Example 112, N-(2-chloro-5-(6-methoxyimidazo[1,2-b]pyridazin-2-yl)phenyl)cyclopentanecarboxamide], the IC50 was 9520 nM in test [1] (setting [3]) and more than 10000 nM in test [2] (setting [4]).
On to `COc1ccc2nc(-c3cc(NC(=O)CC(C)(C)C)ccc3Cl)cn2n1` [Example 117, N-(4-chloro-3-(6-methoxyimidazo[1,2-b]pyridazin-2-yl)phenyl)-3,3-dimethylbutanamide], for which the IC50 in test [1] (setting [5]) was 3000 to 30000 nM; in test [1] (setting [3]), 6740 nM; in test [2] (setting [6]), 3000 to 30000 nM; in test [2] (setting [4]), 2800 nM; in test [2] (setting [7]) it was 3000 to 30000 nM.
Turning to `Cc1c(-c2ccccn2)nn2cc(-c3ccc(C(F)(F)F)c(NC(=O)C(C)(C)C)c3)nc2c1C` [Example 202, N-(5-(7,8-dimethyl-6-(pyridin-2-yl)-imidazo[1,2-b]pyridazin-2-yl)-2-(trifluoromethyl)phenyl)pivalamide], the IC50 is 1320 nM in test [1] (setting [3]) and 221 nM in test [2] (setting [4]).
The matching figures for `COCCN(C)c1ccc2nc(-c3ccc(C(F)(F)F)c(NC(=O)C(C)(C)C)c3)cn2n1` [Example 299, N-(5-(6-((2-methoxyethyl)(methyl)amino)imidazo[1,2-b]pyridazin-2-yl)-2-(trifluoromethyl)phenyl)pivalamide]: 478 nM and 338 nM.
For `CC(=O)NC1CCN(c2ccc3nc(-c4ccc(C)c(NC(=O)C(C)(C)C)c4)c(C)n3n2)C1` (stereo not drawn) [Example 363, N-(5-(6-(3-acetamidopyrrolidin-1-yl)-3-methylimidazo[1,2-b]pyridazin-2-yl)-2-methylphenyl)pivalamide], the IC50 in test [1] (setting [5]) is 300 to 3000 nM; in test [1] (setting [3]), 1240 nM; in test [2] (setting [6]), 300 to 3000 nM; in test [2] (setting [4]), 612 nM; in test [2] (setting [7]), 300 to 3000 nM.
Regarding `CCOC(=O)CCCCCCOc1ccc(-c2ccc3nc(-c4ccc(C)c(NC(=O)C(C)(C)C)c4)cn3n2)c(C(F)(F)F)c1` [Example 413, ethyl 7-(4-(2-(4-methyl-3-pivalamidophenyl)imidazo[1,2-b]pyridazin-6-yl)-3-(trifluoromethyl)phenoxy)heptanoate], the IC50 amounted to 548 nM in test [1] (setting [3]) and 318 nM in test [2] (setting [4]).
Take `CC(C)(C)C(=O)Nc1cc(-c2cn3nc(N4CCS(=O)(=O)CC4)ccc3n2)ccc1C(F)(F)F` [Example 287, N-{5-[6-(1,1-dioxidothiomorpholin-4-yl)imidazo[1,2-b]pyridazin-2-yl]-2-(trifluoromethyl)phenyl}-2,2-dimethylpropanamide]: the IC50 in test [1] (setting [3]) is 462 nM; in test [2] (setting [4]), 491 nM.
On to `CCOC(=O)COc1cccc(-c2ccc3nc(-c4ccc(C)c(NC(=O)C(C)(C)C)c4)cn3n2)c1C(F)(F)F` [Example 410, ethyl 2-(3-(2-(4-methyl-3-pivalamidophenyl)imidazo[1,2-b]pyridazin-6-yl)-2-(trifluoromethyl)phenoxy)acetate], for which the IC50 in test [1] (setting [5]) was 300 to 3000 nM; in test [1] (setting [3]), 403 nM; in test [2] (setting [6]), 300 to 3000 nM; in test [2] (setting [4]) it was 121 nM; in test [2] (setting [7]), less than 300 nM.
For `Cc1c(-c2ccccc2)nc2ccc(N3CCN(Cc4ccc(OC(F)(F)F)cc4)CC3)nn12` [Example 166, 3-methyl-2-phenyl-6-(4-(4-(trifluoromethoxy)benzyl)piperazin-1-yl)imidazo[1,2-b]pyridazine], the IC50 in test [1] (setting [3]) was found to be 1970 nM; in test [2] (setting [4]), 995 nM.
Regarding `Cc1ccc(-c2cn3nc(SCc4ccccc4)ccc3n2)cc1NC(=O)C(C)(C)C` [Example 129, N-(5-(6-(benzylthio)imidazo[1,2-b]pyridazin-2-yl)-2-methylphenyl)pivalamide], the IC50 stood at 789 nM in test [1] (setting [3]) and 1770 nM in test [2] (setting [4]).
Take `CC(C)(C)C(=O)Nc1cc(-c2cn3nc(-c4cccc(F)c4)ccc3n2)ccc1C(F)(F)F` [Example 222, N-(5-(6-(3-fluorophenyl)imidazo[1,2-b]pyridazin-2-yl)-2-(trifluoromethyl)phenyl)pivalamide]: the IC50 in test [1] (setting [3]) was found to be 425 nM; in test [2] (setting [4]), 156 nM.
